Laboratory results taken from a melting point compilation (Tetko et al.; mined from patent text by program, amines drawn as free bases though some values may be those of a salt).

SMILES	melting point [°C]
CN1CC(N2CC(=O)NC2=O)CC2c3cccc4[nH]cc(c34)CC21 (centres undefined)	295 to 297
CC(C)(C)C1=NN(c2ccc(C(=O)O)cc2)C(c2ccccc2)C1 (centres undefined)	233
CCNn1nnnc1S	90 to 91
CCOC(=O)CCCOc1ccc(NC(=O)c2ccc(C(C)(C)C)cc2)cc1	100 to 101
CCOC(=O)C1CCC2(C)C(=CC(O)C3C2CCC2(C)C(O)CCC32)C1 (centres undefined)	170 to 171
COC(=O)CCn1c(=O)n(CCN2CCN(c3ccccc3OC)CC2)c(=O)c2c(C)scc21	127 to 128
CCc1cc(C)cc(CC)c1NC(=S)NC(C)(C)CC	98 to 101
O=C1Nc2ccccc2N(C(=O)N2CCCC(CCN3CCCCC3)C2)c2ncccc21 (centres undefined)	168 to 169
CC(C)(C)NCC(O)c1ccc(OCc2ccccc2)cn1 (centres undefined)	69 to 73
O=C(C=Cc1ccccc1)c1cccc(O)c1	143 to 147
O=C(Nc1ccc2ccc(Oc3ccccc3)nc2n1)c1ccsc1	95
COC(=O)C(Cl)=Cc1cc(N)ccc1Cl	104 to 105
CCCCc1ccc(C2(C)OC(=C(C#N)C#N)C(C#N)=C2C)cc1 (centres undefined)	129 to 130
Cc1ccc2c(CCN)c[nH]c2c1C	171 to 173
CNCCC1CN(c2c(F)cc3c(=O)c(C(=O)O)cn(C4CC4)c3c2F)CCO1 (centres undefined)	243 to 251
COC(=O)Nc1cccc2c1C(=O)c1c-2n[nH]c1-c1ccc(OC)cc1	> 300
Nc1ncc(I)c(N)c1I	206
Cc1ccc(C(=S)OCSC#N)cc1	55
CCCC(=O)ON=C(c1ccccc1)c1cc(C(C)(C)C)c(O)c(C(C)(C)C)c1	118 to 119
CCOC(=O)c1c(O)c2ccc(C)nc2n(C)c1=O	143 to 145
c1ccc(CNC2CN(C(c3ccccc3)c3ccccc3)C2)cc1	73 to 75
CCOCn1c(C(=O)c2cc(C)cc(C)c2)c(CC)c(=O)[nH]c1=O	184
CON1CCC2(CC1)C(O)=C(c1cc(C)c(C)cc1Cl)C(=O)N2C	191 to 192
CC(=O)SCC(Cc1ccccc1)C(=O)NN1CCCC1 (centres undefined)	91
O=COCc1c(Cl)ccc2cc(Cl)cnc12	146
CN(C)C(=O)C(Br)Cn1ccc(-c2ccccc2)n1 (centres undefined)	93 to 94

SMILES	melting point [°C]
COc1ccc([N+](=O)[O-])c(C=O)c1	89 to 90
CCOC(=O)CCc1cc(O)nn1C(C)C	119 to 120
Nc1nc(N)nc(-c2ccc(NS(=O)(=O)c3ccccc3)cc2)n1	197 to 199
CCCCN(CCCC)c1ccc(C(C#N)=c2ccc(=C(C#N)C#N)cc2)c(OC)c1	215 to 238
Cc1ccc(-c2n[nH]c3c2CCCC3)cc1	57.4 to 59.9
CCNC(=O)c1cnn(C)c1[Si](C)(C)C	77 to 81
O=C(c1ccccc1)N1CCCC(c2ccc(Cl)cc2)=N1	117 to 118
CCCc1nc(C=O)cc(N)c1F	113 to 114
CC(C)C(=O)O[C@@H]1C[C@H](C(=O)Nc2ccc(N3CCOCC3=O)cc2)N(C(=O)Nc2ccc(Cl)cc2)C1	129
CON(C)C(=O)c1c(-c2ccc(Cl)cc2)nsc1-c1ccccc1	119 to 120
O=c1[nH]c2ccc(Cl)cc2n1-c1cccc(Cl)c1	112
Cc1c(O)c(C)c2nc(COc3ccc(CC4SC(=O)NC4=O)cc3)n(C)c2c1C (centres undefined)	240 to 244
O=C(Nc1ccc(-c2ncc(-c3cccc(NC(=O)c4ccccn4)c3)[nH]2)cc1)c1ccccn1	255 to 257
O=C1c2ccc([N+](=O)[O-])cc2C(=O)N1CCSc1ccccc1	120 to 121
O=C(Nc1cc(-c2c(-c3ccc(Cl)cc3)nc3cccnn23)ccn1)c1ccccc1	218 to 219
CCOC(=O)c1cc(-n2c(=O)c(C)c(C)n(C)c2=O)ccc1Cl	159 to 161
O=CC(=CCl)c1ccc(Cl)cc1	38
COc1cc2c(=O)n3cccc3cnc2cc1OCc1ccccc1	58 to 61
CCOC(=O)c1coc(=O)cc1S(C)(=O)=O	95 to 97
Cc1nn2c(O)ccnc2c1-c1cc(-c2ccccc2)cs1	218 to 235
ClCc1c(-c2ccccc2)c(-c2ccccc2)nn1-c1ccccc1	122
CC(=O)Nc1ccc2c(c1)C(CN1CCC(c3ccc(F)cc3)CC1)CC2 (centres undefined)	145 to 146
COc1ccc2c(c1)CCC1C2CCC2(C)C(NCc3ccc(O)c(OC)c3)CCC12 (centres undefined)	169 to 170
O=C1CC=C(c2ccc(F)cc2)CC1	44.5 to 46.5
CCOC(=O)c1ccc(Oc2cccc3[nH]c4cnc(C(=O)OC(C)C)c(COC)c4c23)o1	191 to 192

Now from value to compound:

melting point [°C]	SMILES
242	N=C(N)NC(=O)c1cn(-c2ccc3ccccc3n2)c2ncccc12
173 to 174	O=c1nc(N2CCCc3c(Br)cccc32)sc2ncccc12
152 to 155	COC(=O)c1cc(Cl)c(Oc2ccc(O)cc2)c(Cl)c1
140 to 142	O=C1Cc2cccc(OCc3ccccc3)c2N1
214	CN1C(=O)C(C2=COc3ccccc3O2)=C(c2c[nH]c3cc(F)ccc23)C1=O
144 to 146	CC(C)(C)c1ccc2c(c1)C([Si](C)(C)C)c1cc(C(C)(C)C)ccc1-2
212 to 215	CN1CC[C@@H](c2c(O)cc(O)c3c(=O)cc(-c4ccccc4)oc23)[C@@H]1CO
238 to 244	O=[N+]([O-])c1c(O)c(O)cc2cc(N=Nc3ccccc3)ccc12
178 to 180	COc1cc(N)c(Cl)cc1-c1nc(-c2cccnc2)c(C)[nH]1
128 to 129	CSc1cc(-c2ccc(C(F)(F)F)cc2)ccc1C#N
122	CO/N=C(/C(N)=O)c1ccccc1COc1cc(C)ccc1C
108 to 109	CCOC(=O)c1cc2cc(-c3ccc(C(C)O)cc3)ccc2o1 (centres undefined)
91 to 93	CCCCCCCCCCCc1nnc2n1-c1sc(CC)cc1C(c1ccc(OC)cc1)OC2 (centres undefined)
106 to 107	CCCc1nn(-c2ccc(C(F)(F)F)cn2)cc1CCCOc1cccc(CC(=O)O)c1
212 to 213	Cc1cc(C)cc(-c2[nH]c3ccc(C(=O)O)cc3c2CCN(CCCCc2ccc(NS(C)(=O)=O)cc2)C(=O)OCc2ccccc2)c1
192 to 195	O=C(NN1CCc2ccccc2C(Oc2ccc(C(F)(F)F)cc2)C1)C(F)(F)F (centres undefined)
133 to 136	COc1ccc2cc(N)ccc2c1
178 to 180	Cc1cc(CC(=O)OC(C)(C)C)ccc1NC(=O)Nc1ccccc1C(F)(F)F
280 to 282	COCC1COc2cc3ncnc(Nc4cccc(C(F)(F)F)c4)c3cc2O1 (centres undefined)
146 to 148	CC(C)(C)c1ccc(/C=N/OCCOc2ccc(C(=O)O)c(OC(=O)c3ccc(C(F)(F)F)cc3)c2)cc1
66 to 68	CCOCCNC(=O)OCCCc1ccc(OCCOC)cc1Oc1ncc(C(F)(F)F)cc1Cl
194 to 196	COC(=O)c1coc2cc(Oc3ccnc(N)n3)ccc12
183	O=C(O)c1cccc(Oc2ccnc(Cl)c2)n1
